Laboratory results published in US7700638B2, “1,5,7-trisubstituted benzimidazole derivatives and their use for modulating the GABAA receptor complex” (N. V. Organon, priority 2003, dated 2010).
Structures can show the parent of a compound that is named as a salt.

Molecular target: GABA recognition site and the benzodiazepine modulatory unit (GABAA receptor complex), cerebral cortex membranes
Assay: In vitro inhibition of 3H-flunitrazepam (3H-FNM) binding
Parameters: species or system rat
Conditions: inhibition of specific binding of 3H-FNM (1 nM), cerebral cortex membranes from male Wistar rats, 40 min at 2° C.
Procedure: In vitro Inhibition of ^3H-flunitrazepam (^3H-FNM) Binding
The GABA recognition site and the benzodiazepine modulatory unit can selectively be labelled with ^3H-flunitrazepam.
Preparations are performed at 0-4° C. unless otherwise indicated. Cerebral cortex from male Wistar rats (150-200 g) is homogenised for 5-10 sec in 20 ml […] (30 mM, pH 7.4) using an Ultra-Turrax homogeniser. The suspension is centrifuged at 27,000×g for 15 min and the pellet is washed three times with buffer (centrifuged at 27,000×g for 10 min). The washed pellet is homogenized in 20 ml of buffer and incubated on a water bath (37° C.) for 30 min to remove endogenous GABA and then centrifuged for 10 min at 27,000×g. The pellet is then homogenized in buffer and centrifuged for 10 min at 27,000×g. The final pellet is resuspended in 30 ml buffer and the preparation is frozen and stored at −20° C.
The membrane preparation is thawed and centrifuged at 2° C. for 10 min at 27,000×g. The pellet is washed twice with 20 ml 50 mM Tris-citrate, pH 7.1 using an Ultra-Turrax homogeniser and centrifuged for 10 min at 27,000×g. The final pellet is resuspended in 50 mM Tris-citrate, pH 7.1 (500 ml buffer per g of original tissue), and then used for binding assays. Aliquots of 0.5 ml tissue are added to 25 μl of test solution and 25 μl of ^3H-FNM (1 nM, final concentration), mixed and incubated for 40 min at 2° C. Non-specific binding is determined using Clonazepam (1 μM, final concentration). After incubation the samples are added 5 ml of ice-cold buffer and poured directly onto Whatman GF/C glass fibre filters under suction and immediately washed with 5 ml ice-cold buffer. The amount of radioactivity on the filters is determined by conventional liquid scintillation counting. Specific binding is total binding minus non-specific binding.
25-75% inhibition of specific binding must be obtained, before calculation of an IC50.
The test value will be given as IC50 (the concentration (μM) of the test substance which inhibits the specific binding of ^3H-FNM by 50%).
Co is specific binding in control assays, and
Cx is the specific binding in the test assay.
(The calculations assume normal mass-action kinetics).

With “7-[1-(3-Dimethylamino)pyrrolidinyl]-1-phenyl-5-trifluoromethylbenzimidazole trifluoroacetic acid salt [Example 94]” the IC50 was 90 nM.
In the case of `Nc1cccc(-c2cc(C=NO)cc3ncn(-c4ccccc4)c23)c1` [Example 6, 7-(3-Aminophenyl)-5-formyl-1-phenylbenzimidazole oxime], the IC50 is reported as 4.2 nM.
Compound `N#Cc1cccc(C=Nc2cc(C(F)(F)F)cc3ncn(-c4ccccc4)c23)c1` [Example 10, 7-(N-(3-cyanobenzylidene)amino)-1-phenyl-5-trifluoromethylbenzimidazole] has an IC50 of 18 nM.
`OCc1cccc(-c2cc(C(F)(F)F)cc3ncn(-c4ccccc4)c23)c1` [Example 12, 7-(3-(Hydroxymethyl)phenyl)-1-phenyl-5-trifluoromethylbenzimidazole] was tested, and the IC50 was 30 nM.
With `COc1ccc(-c2cc(C#N)cc3ncn(-c4ccccc4)c23)cc1` [Example 23, 5-Cyano-7-(4-methoxyphenyl)-1-phenylbenzimidazole] the IC50 was 38 nM.
`CCOC(=O)c1cc(-c2cccc(CN3CCN(C)CC3)c2)c2c(c1)ncn2-c1ccccc1` [Example 33, 5-Ethoxycarbonyl-7-(3-((1-methylpiperazin-4-yl)methyl)phenyl)-1-phenylbenzimidazole] gave an IC50 of 19 nM.
Work on `CCN(CC)Cc1ccc(-c2cc(C#N)cc3ncn(-c4ccccc4)c23)cc1` [Example 41, 5-Cyano-7-(4-diethylaminomethylphenyl)-1-phenylbenzimidazole trifluoroacetic acid salt] yielded an IC50 of 27 nM.
With `OCc1cc(-c2cccc(OC(F)(F)F)c2)c2c(c1)ncn2-c1ccccc1` [Example 51, 5-(Hydroxymethyl)-1-phenyl-7-(3-trifluoromethoxyphenyl)benzimidazole] the IC50 was 12 nM.
For `COC(=O)C=Cc1cc(C(F)(F)F)cc2ncn(-c3ccccc3)c12` [Example 57, 3-(3-Phenyl-6-trifluoromethyl-3H-benzimidazol-4-yl)acrylic acid methyl ester], the IC50 was 46 nM.
For `CCN(CC)C(=O)C=Cc1cc(C(F)(F)F)cc2ncn(-c3ccccc3)c12` [Example 65, N,N-Diethyl-3-(3-phenyl-6-trifluoromethyl-3H-benzimidazol-4-yl)acrylamide], the IC50 was 20 nM.
Work on `FC(F)(F)c1cc(C#CCN2CCOCC2)c2c(c1)ncn2-c1ccccc1` [Example 80, 7-(3-(4-Morpholino)prop-1-ynyl)-1-phenyl-5-trifluoromethylbenzimidazole trifluoroacetic acid salt] yielded an IC50 of 180 nM.
`CCN(CC)C(=O)CCc1cc(C(F)(F)F)cc2ncn(-c3ccccc3)c12` [Example 81, N,N-Diethyl-3-(3-Phenyl-6-trifluoromethyl-3H-benzimidazol-4-yl)propionamide] was tested, and the IC50 was 38 nM.
`CN(CCC#N)CCCCc1cc(C(F)(F)F)cc2ncn(-c3ccccc3)c12` [Example 88, 7-(4-((N-(2-Cyanoethyl)-N-methyl)amino)-1-butyl)-1-phenyl-5-trifluoromethylbenzimidazole trifluoroacetic acid salt] was tested, and the IC50 was 100 nM.
`FC(F)(F)c1cc(C#CCN2CC=CCC2)c2c(c1)ncn2-c1ccccc1` [Example 92, 1-Phenyl-7-(3-(1-(1,2,3,6-tetrahydropyridinyl))prop-1-ynyl)-5-trifluoromethylbenzimidazole] was tested, and the IC50 was 48 nM.
